We go through 22 compounds from patent US10040798B2, “Pyrrolopyridazine inhibitors of IRAK4 activity” (MERCK SHARP & DOHME CORP., priority 2015, dated 2018).

Counter-ions that a name gives are not always drawn.

A word on the IC50: it is the midpoint of a concentration-inhibition curve. High values mean lower potency, low ones higher potency.

The target in this experiment is IRAK4 (Homo sapiens (Human), UniProt Q9NWZ3). As to the kind of experiment: IRAK4 Kinase Assay (IMAP fluorescence polarization). It is filed as biochemical. Conditions: 0.5 nM GST tagged IRAK4, 100 μM ATP, 30 minutes at 25° C., IMAP FP. Here is the method: The kinase activity of IRAK4 is determined by its ability to catalyze the phosphorylation of a fluorescent polypeptide substrate. The extent of phosphorylation is measured using the IMAP technology (Molecular Devices) where the phosphorylated fluorescent substrate binds to the large M (III)-based nanoparticles which reduces the rotational speed of the substrate and thus increases its fluorescent polarization (FP).
Chain of IRAK4 (Q9NWZ3 whole entry): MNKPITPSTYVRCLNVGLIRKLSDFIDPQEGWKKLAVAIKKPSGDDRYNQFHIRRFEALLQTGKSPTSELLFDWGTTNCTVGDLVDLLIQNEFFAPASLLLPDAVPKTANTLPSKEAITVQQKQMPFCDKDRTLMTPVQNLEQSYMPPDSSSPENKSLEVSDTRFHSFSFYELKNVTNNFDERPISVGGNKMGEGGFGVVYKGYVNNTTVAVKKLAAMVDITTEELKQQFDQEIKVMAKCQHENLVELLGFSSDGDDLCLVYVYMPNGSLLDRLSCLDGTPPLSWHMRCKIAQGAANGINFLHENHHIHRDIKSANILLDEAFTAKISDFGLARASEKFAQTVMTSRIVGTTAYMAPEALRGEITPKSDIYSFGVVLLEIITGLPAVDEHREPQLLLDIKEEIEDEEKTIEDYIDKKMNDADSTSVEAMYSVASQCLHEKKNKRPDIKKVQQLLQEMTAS
20 μL reaction mixture contains 10 mM TriHCl, pH 7.2, 0.5 nM GST tagged IRAK4 (SignalChem), 100 nM fluorescent peptide substrate (RP7030, Molecular Devices), 100 μM ATP, 1 mM DDT, 1 mM MgCl2, and 0.01% Tween 20. The reaction is initiated by the addition of ATP. After incubation for 30 minutes at 25° C., 60 μL of Progressive IMAP Reagent (Molecular Devices) is added to stop the reaction. Change in RP7030's FP is determined by a FP reader (Analyst HT, LJL BioSystems).
A general note: Polarisation of emitted light reports the rotation of a fluorescent probe.
On to `Cn1cc(NC(=O)c2ccc3ccc(N4CCCNCC4)nn23)c(Br)n1` [Example 21, N-(3-bromo-1-methyl-1H-pyrazol-4-yl)-2-(1,4-diazepan-1-yl)pyrrolo[1,2-b]pyridazine-7-carboxamide trifluoroacetate], for which the IC50 was 32 nM.
Consider `Cn1cc(NC(=O)c2ccc3ccc(N[C@@H]4CCCC[C@@H]4N)nn23)c(Br)n1` [Example 22, 2-{[(1R,2S)-2-amino-cyclohexyl]amino}-N-(3-bromo-1-methyl-1H-pyrazol-4-yl)pyrrolo[1,2-b]pyridazine-7-carboxamide trifluoroacetate], for which half-maximal inhibition (IC50) required 2 nM.
Under `Cn1cc(NC(=O)c2ccc3ccc(N4CCCNCC4)nn23)c(Cl)n1` [Example 23, N-(3-chloro-1-methyl-1H-pyrazol-4-yl)-2-(1,4-diazepan-1-yl)pyrrolo[1,2-b]pyridazine-7-carboxamide trifluoroacetate] stands 20 nM; under `Cn1cc(NC(=O)c2ccc3ccc(NC4CCCCNC4)nn23)c(C(F)F)n1` (stereo not shown) [Example 24, 2-(azepan-3-ylamino)-N-[3-(difluoromethyl)-1-methyl-1H-pyrazol-4-yl]pyrrolo[1,2-b]pyridazine-7-carboxamide trifluoroacetate], 2 nM.
With `Cn1cc(NC(=O)c2ccc3ccc(N[C@@H]4CCCC[C@@H]4N)nn23)c(Cl)n1` [Example 25, 2-{[(1R,2S)-2-aminocyclohexyl]amino}-N-(3-chloro-1-methyl-1H-pyrazol-4-yl)pyrrolo[1,2-b]pyridazine-7-carboxamide trifluoroacetate] the figure was 1 nM; with `Cn1cc(NC(=O)c2ccc3ccc(N4CC5CCC4CN5)nn23)c(Cl)n1` (stereo not shown) [Example 26, N-(3-chloro-1-methyl-1H-pyrazol-4-yl)-2-(2,5-diazabicyclo[2.2.2]oct-2-yl)pyrrolo[1,2-b]pyridazine-7-carboxamide trifluoroacetate], 28 nM; with `Cn1cc(NC(=O)c2ccc3ccc(N4CC5CCC4CN5)nn23)c(Br)n1` (stereo not shown) [Example 27, N-(3-bromo-1-methyl-1H-pyrazol-4-yl)-2-(2,5-diazabicyclo[2.2.2]oct-2-yl)pyrrolo[1,2-b]pyridazine-7-carboxamide trifluoroacetate], 24 nM.
Under `Cn1cc(NC(=O)c2ccc3ccc(N[C@@H]4CCCC(F)(F)[C@@H]4N)nn23)c(C(F)F)n1` [Example 28, 2-{[(1R,2R)-2-amino-3,3-difluorocyclohexyl]amino}-N-[3-(difluoromethyl)-1-methyl-1H-pyrazol-4-yl]pyrrolo[1,2-b]pyridazine-7-carboxamide trifluoroacetate] stands 34 nM; under `Cn1cc(NC(=O)c2ccc3ccc(N[C@@H]4CCCC[C@@H]4N)nn23)c(C#N)n1` [Example 29, 2-{[(1R,2S)-2-aminocyclohexyl]amino}-N-(3-cyano-1-methyl-1H-pyrazol-4-yl)pyrrolo[1,2-b]pyridazine-7-carboxamide trifluoroacetate], 0.7 nM.
`Cn1cc(NC(=O)c2ccc3ccc(N4CCCNCC4)nn23)c(C#N)n1` [Example 30, N-(3-cyano-1-methyl-1H-pyrazol-4-yl)-2-(1,4-diazepan-1-yl)pyrrolo[1,2-b]pyridazine-7-carboxamide trifluoroacetate] yielded a half-inhibitory concentration (IC50) of 27 nM.
With `Cn1cc(NC(=O)c2ccc3ccc(N4CC5CCC4CN5)nn23)c(C#N)n1` (stereo not shown) [Example 31, N-(3-cyano-1-methyl-1H-pyrazol-4-yl)-2-(2,5-diazabicyclo[2.2.2]oct-2-yl)pyrrolo[1,2-b]pyridazine-7-carboxamide trifluoroacetate] the figure was 25 nM.
Under `Cn1cc(NC(=O)c2ccc3ccc(N[C@@H]4CCCC(F)(F)[C@@H]4N)nn23)c(Br)n1` [Example 32, 2-{[(1R,2R)-2-amino-3,3-difluoro-cyclohexyl]amino}-N-(3-bromo-1-methyl-1H-pyrazol-4-yl)pyrrolo[1,2-b]pyridazine-7-carboxamide trifluoroacetate] stands 275 nM.
With `Cn1ncc(NC(=O)c2ccc3ccc(N[C@@H]4CCCC[C@@H]4N)nn23)c1C(F)(F)F` [Example 45, 2-{[(1R,2S)-2-aminocyclohexyl]amino}-N-[1-methyl-5-(trifluoromethyl)-1H-pyrazol-4-yl]pyrrolo[1,2-b]pyridazine-7-carboxamide trifluoroacetate], the half-inhibitory concentration (IC50) was determined as 136 nM.
As to `Cn1cc(NC(=O)c2ccc3ccc(N4CC5CCC(C4)N5)nn23)c(C(F)F)n1` [Example 46, 2-(3,8-diazabicyclo[3.2.1]oct-3-yl)-N-[3-(difluoromethyl)-1-methyl-1H-pyrazol-4-yl]pyrrolo[1,2-b]pyridazine-7-carboxamide trifluoroacetate], the half-maximal inhibitory concentration (IC50) was 1 nM.
The compound `Cn1cc(NC(=O)c2ccc3ccc(N4CC5CCC(C4)N5)nn23)c(C(F)(F)F)n1` [Example 47, 2-(3,8-diazabicyclo[3.2.1]oct-3-yl)-N-[1-methyl-3-(trifluoromethyl)-1H-pyrazol-4-yl]pyrrolo[1,2-b]pyridazine-7-carboxamide trifluoroacetate] gave a 50% inhibitory concentration (IC50) of 9 nM.
Consider `Cn1cc(NC(=O)c2ccc3ccc(N[C@@H]4CCCC(F)(F)[C@@H]4N)nn23)c(Cl)n1` [Example 48, 2-{[(1R,2R)-2-amino-3,3-difluoro-cyclohexyl]amino}-N-(3-chloro-1-methyl-1H-pyrazol-4-yl)pyrrolo[1,2-b]pyridazine-7-carboxamide acetate], for which the IC50 amounted to 138 nM.
Under `Cn1cc(NC(=O)c2ccc3ccc(N[C@@H]4CCCC(F)(F)[C@@H]4N)nn23)c(C#N)n1` [Example 52, 2-{[(1R,2R)-2-amino-3,3-difluoro-cyclohexyl]amino}-N-(3-cyano-1-methyl-1H-pyrazol-4-yl)pyrrolo[1,2-b]pyridazine-7-carboxamide trifluoroacetate] stands 43 nM; under `Cn1cc(NC(=O)c2ccc3ccc(N[C@@H]4CCCC[C@@H]4O)nn23)c(Cl)n1` [Example 53, N-(3-chloro-1-methyl-1H-pyrazol-4-yl)-2-{[(1R,2S)-2-hydroxycyclohexyl]amino}pyrrolo[1,2-b]pyridazine-7-carboxamide trifluoroacetate], 55 nM.
`CC(C)(C)n1cc(NC(=O)c2ccc3ccc(N[C@@H]4CCCC[C@@H]4O)nn23)c(C(F)F)n1` [Example 54, N-[1-tert-butyl-3-(difluoromethyl)-1H-pyrazol-4-yl]-2-{[(1R,2S)-2-hydroxycyclohexyl]amino}pyrrolo[1,2-b]pyridazine-7-carboxamide trifluoroacetate] returned an IC50 of 640 nM.
With `CC(C)n1cc(NC(=O)c2ccc3ccc(N[C@@H]4CCCC[C@@H]4O)nn23)c(C(F)F)n1` [Example 55, N-[3-(difluoromethyl)-1-(1-methylethyl)-1H-pyrazol-4-yl]-2-{[(1R,2S)-2-hydroxycyclohexyl]amino}pyrrolo[1,2-b]pyridazine-7-carboxamide trifluoroacetate] the figure was 53 nM; with `O=C(Nc1cscc1C(F)F)c1ccc2ccc(N3CC4CCC3CN4)nn12` (stereo not shown) [Example 56, 2-(2,5-diazabicyclo[2.2.2]oct-2-yl)-N-[4-(difluoromethyl)thiophen-3-yl]pyrrolo[1,2-b]pyridazine-7-carboxamide trifluoroacetate], 95 nM.
For `O=C(Nc1ccccc1Br)c1ccc2ccc(N3CCCNCC3)nn12` [Example 57, N-(2-bromophenyl)-2-(1,4-diazepan-1-yl)pyrrolo[1,2-b]pyridazine-7-carboxamide trifluoroacetate], the IC50 stood at 3960 nM.
